Results: ChEMBL document CHEMBL3526144 (Drug Metab Dispos, 2011)
pKi: −log10 of the molar value.

What was measured:
[1] = Inhibition of CYP3A4.1 (unknown origin)-mediated testosterone 6beta-hydroxylation incubated for 10 mins prior to NADPH addition measured after 20 mins by HPLC-UV analysis
[2] = Inhibition of CYP3A4.2 (unknown origin)-mediated testosterone 6beta-hydroxylation incubated for 10 mins prior to NADPH addition measured after 20 mins by HPLC-UV analysis
[3] = Inhibition of CYP3A4.7 (unknown origin)-mediated testosterone 6beta-hydroxylation incubated for 10 mins prior to NADPH addition measured after 20 mins by HPLC-UV analysis
[4] = Inhibition of CYP3A4.16 (unknown origin)-mediated testosterone 6beta-hydroxylation incubated for 10 mins prior to NADPH addition measured after 20 mins by HPLC-UV analysis
[5] = Inhibition of CYP3A4.18 (unknown origin)-mediated testosterone 6beta-hydroxylation incubated for 10 mins prior to NADPH addition measured after 20 mins by HPLC-UV analysis
CYP3A4.7 and CYP3A4.1 = assay: Ratio of Ki for CYP3A4.7 (unknown origin) to Ki for CYP3A4.1 (unknown origin); assay type: ADME; details: human
CYP3A4.16 and CYP3A4.1 = assay: Ratio of Ki for CYP3A4.16 (unknown origin) to Ki for CYP3A4.1 (unknown origin); details: human
CYP3A4.2 and CYP3A4.1 = assay: Ratio of Ki for CYP3A4.2 (unknown origin) to Ki for CYP3A4.1 (unknown origin); assay type: ADME; details: human

SMILES: CCC(C)n1ncn(-c2ccc(N3CCN(c4ccc(OCC5COC(Cn6cncn6)(c6ccc(Cl)cc6Cl)O5)cc4)CC3)cc2)c1=O (stereo not drawn) [ITRACONAZOLE]
- pKi [1]: 7.12
- pKi [2]: 7.35
- pKi [3]: 6.75
- pKi [4]: 7.39
- pKi [5]: 7.09
- selectivity ratio (CYP3A4.7 and CYP3A4.1): 2.4
- selectivity ratio (CYP3A4.16 and CYP3A4.1): 0.54
- selectivity ratio (CYP3A4.2 and CYP3A4.1): 0.59
